{"source": "patent US20180353461A1", "about": "“USE OF CANNABINOIDS AS CERAMIDE-GENERATING ANTICANCER AGENTS IN TUMORS OF THE HEMATOPOIETIC AND LYMPHOID TISSUES” (priority 2014, published 2018)", "key": {"[1]": {"test_system": "HL60 cells", "test": "SPT expression, ceramide staining and SPT inhibition in HL60 cells", "type": "cell-based, human", "settings": "HL60, co-incubation with cannabinoid, 2 hours", "protocol": "Extracted proteins (15-25 ug/well) were separated by sodium dodecyl sulfate-polyacrylamide gel electrophoresis (SDS/PAGE) in pre-cast polyacrylamide gels AnykD (Bio-Rad Laboratories, Hercules, Calif., USA) under reducing and denaturing conditions. Electrophoretic run was performed at a constant current of 15 mA per gel in a Mini-Protean® Tetra Cell (Bio-Rad Laboratories) and were electrophoretically transferred onto PVDF membranes using Trans-Blot® Turbo™ System (Bio-Rad Laboratories). Blocking was performed with 2% bovine serum albumin [(BSA), Santa Cruz Biotechnology] in Tween-Tris buffer saline (TTBS). Membranes were incubated overnight at 4° C. with corresponding primary antibody in TTBS.\nCells were grown on glass cover slips (Menzel-Glaser, Thermo Fisher Scientific) in the presence or absence of WIN 55,212-2. The cover slips were then washed twice in phosphate-buffered saline (PBS), and the cells were fixed in cold 4% paraformaldehyde for 10 min, treated with sodium borohydride and, permeabilized in 0.02% Triton X-100 in PBS with 10% normal donkey serum for blocking. Cell nuclei were stained with diamidino-2-phenylindole [(DAPI), Pierce, Thermo Fisher Scientific)]. Then, cells were incubated with the anti-CB1 or anti-CB2 receptor antibodies or anti-ceramide in blocking buffer overnight at 4° C. in a humid chamber (Simport, Beloeil, QC, Canada). After washing with PBS, samples were further incubated for 90 min with Alexa 647- or Alexa 488-conjugated donkey secondary antibody.\nAfter final washing in PBS, the cover slips were dried and mounted on slides using Fluoromount Aqueous Mounting Medium (Sigma-Aldrich). Changes in the protein expression were visualized by fluorescence microscopy using a specific excitation for each antibody. Digital images were acquired with CellSens Dimension Software (Olympus) and manipulated with Photoshop CS2 Software (Adobe Systems Inc). There was no labeling when the primary antibody was omitted (data not shown).\nAdditionally, de novo synthesis of ceramides also contribute to the apoptotic process triggered by cannabinoids in AML. We examined whether ceramides participate in the cannabinoid-induced apoptosis in leukemic cells. To this end, we analyzed the expression of serine palmitoyltransferase (SPT), the enzyme that catalyses the rate-limiting step of ceramide synthesis de novo. […] To ensure that this up-regulation of SPT entails an increased of ceramide synthesis, we examined the expression of ceramide by immunohistochemistry. […] Furthermore, to strengthen the engagement of the ceramide in cannabinoid-induced apoptosis, we analyzed the cannabinoid-induce apoptosis after inhibition of ceramide synthesis with Myoricin, a selective SPT inhibitor."}, "[2]": {"test_system": "U266 cells", "test": "SPT expression, ceramide staining and SPT inhibition in U266 cells", "type": "cell-based, human", "settings": "U266, co-incubation with cannabinoid, 6 hours", "protocol": "Except if otherwise indicated, for the viability assays primary cells were incubated 18 hours, with vehicle (with <0.15% DMSO) or cannabinoid. Meanwhile, the time course assays cells were performed at 0, 2, 6, 18 and 24 h. For the analysis of SPT activity, cells were co-incubated for the first 6 hours with the SPT inhibitor, myriocin, and the cannabinoid, WIN-55 or JWH-133.\nSamples (15-25 ug/lane) were subjected to SDS/PAGE in pre-cast polyacrylamide gels AnykD (Bio-Rad Laboratories, Hercules, CA, USA) under reducing and denaturing conditions. Electrophoretic run was performed at a constant current of 15 mA per gel in a Mini-Protean® Tetra Cell (Bio-Rad Laboratories). Once proteins were separated by electrophoresis, were transferred onto PVDF membranes using Trans-Blot® Turbo™ System (Bio-Rad Laboratories). Electrotransference was conducted at constant amperage of 1.2 mA and at up to 25 V of voltage. The blotted membranes were then blocked with 2% bovine serum albumin [(BSA), Santa Cruz Biotechnology] in Tween-Tris buffer saline (TTBS) for 30 min with gentle agitation, and incubated overnight at 4° C. with corresponding primary antibody in TTBS. After twice washing with TTBS, membranes were incubated for 1-2 h at room temperature with suitable conjugated-HRP secondary antibody, and subjected to chemiluminescence detection using Western Blotting Luminol Reagent (Santa Cruz Biotechnology). Loading controls were carried out with an anti-beta-actin and anti-beta-tubulin antibodies (Sigma-Aldrich). Blots were captured using a digital imaging system ImageQuant LAS 4000 (Amersham GE Healthcare) and transferred to a digital image processing software to analyze (Adobe Photoshop CS2, version 9.0., Adobe Systems Inc., San Jose, Calif.).\nAfter cannabinoids and/or antagonists or SPT inhibitor treatment, primary cells and cell lines were washed with PBS, collected and placed on slides (Menzel-Glaser, Thermo Fisher Scientific). Cells were fixed in cold 4% paraformaldehyde for 10 min, treated with sodium borohydride and, permeabilized in 0.02% Triton X-100 in PBS with 10% normal donkey serum for blocking. Then, cells were incubated with the anti-CB1 or anti-CB2 receptor antibodies, anti-active-caspase3, anti-ceramide in blocking buffer overnight at 4° C. in a humid chamber (Simport, Beloeil, QC, Canada). After washing with PBS, samples were further incubated for 90 min with Alexa 647- or Alexa 488—conjugated donkey secondary antibody. After twice washing, first with PBS and then with 50 mM Tris-HCl (pH 7.4), and were dipped in a solution of Sudan Black B (Sigma-Aldrich) in 70% methanol for 5 min. After immunocytochemistry, slides were mounted using Fluoromount Aqueous Mounting Medium (Sigma-Aldrich). Preparations were examined with an Olympus BX-61 microscope (Olympus, Hamburg, Germany) equipped with appropriate filters: FITC/Cy2 (green fluorophores) 460-490 nm bandpass excitation filter and 510-550 nm bandpass emission filter; rhodamine/Cy3 (red fluorophores) 541-551 nm excitation and 572-607 nm emission; and Cy5 (deep red fluorophore) 615-635 nm excitation and 655 nm longpass emission. Digital images were acquired with CellSens Dimension Software (Olympus) and contrasted with Photoshop CS2 Software (Adobe Systems Inc). […]\nDe novo synthesis of ceramides contribute to the apoptotic process triggered by cannabinoids. […] To this end, we analyzed the expression of serine palmitoyltransferase (SPT), the enzyme that catalyses the rate-limiting step of ceramide synthesis de novo. […]"}}}
{"smiles": "CCCCCCC(=O)CCCCCC/C=C/C[C@@H](O)[C@H](O)[C@@](N)(CO)C(=O)O", "note": "[Myoricin]", "values": [{"measurement": "fragmentation of PARP induced by cannabinoid, after blockage of ceramide synthesis", "setting": "[1]", "value": "abolished, at least in part"}, {"measurement": "fragmentation of PARP induced by cannabinoid, after blockage of ceramide synthesis", "setting": "[2]", "value": "abolished, at least in part"}]}
